Consider four molecules from patent US5028715A, “Radioprotective agents and their method of manufacture” (priority 1989, dated 1991).

Where two headings read alike, the source gives them in different places.

Holding throughout (format): in vivo
Data set [1] in a line: Acute toxicity in mice (Table I). As to conditions: mouse, in vivo; for survival: read-out: Survivors (%); for LD50: mice, ip. As for the experimental part:
(§1) Radioprotective Agents A, B, C, and D were tested for acute toxicity and radioprotective activity using test mice at various dosage levels against LD100 of γ-radiation. The agents were administered interperitoneally (ip).

The subject of data set [2] is test mice. In words: Acute toxicity in mice (Table I). As to conditions: vehicle H2O. As for the experimental part: as §1
Data set [3] has as its system test mice. In words: Radioprotective activity in mice against LD100 of γ-radiation (1000 RAD) (Table II). As to conditions: for toxicity (in words): at the levels used in this test; for protection against LD100 dose of irradiation (in words): dose level near the LD50 (50 mg/kg), all the mice survived.
Setting [4] is: 75 mg/kg ip, 30 min before 1000 RAD.
The mark [5] stands for this setting: 150 mg/kg ip, 30 min before 1000 RAD.
Setting [6] is: 300 mg/kg ip, 30 min before 1000 RAD.
Where [7] appears, read: 300 mg/kg po, 30 min before 1000 RAD.
Where [8] appears, read: 600 mg/kg po, 30 min before 1000 RAD.
[9] abbreviates: 1200 mg/kg po, 30 min before 1000 RAD.
Where [10] appears, read: 18.75 mg/kg ip, 30 min before 1000 RAD.
[11] abbreviates: 37.5 mg/kg ip, 30 min before 1000 RAD.
Setting [12] is: 54.3 mg/kg ip, 30 min before 1000 RAD.
[13] abbreviates: 109 mg/kg ip, 30 min before 1000 RAD.
Where [14] appears, read: 217 mg/kg ip, 30 min before 1000 RAD.
The mark [15] stands for this setting: 435 mg/kg ip, 30 min before 1000 RAD.
[16] abbreviates: 55.1 mg/kg ip, 0 min before 1000 RAD.
Where [17] appears, read: 110.3 mg/kg ip, 0 min before 1000 RAD.
[18] abbreviates: 220.6 mg/kg ip, 0 min before 1000 RAD.
Setting [19] is: 441 mg/kg ip, 0 min before 1000 RAD.

As to `NCCCN1CCSC1c1ccc([N+](=O)[O-])cc1` (stereo not drawn) [A], the survival stood at 100% in data set [1] (75 mg/kg ip, vehicle H2O); 100% in data set [1] (150 mg/kg ip, vehicle H2O); 60% in data set [1] (300 mg/kg ip, vehicle H2O); 0% in data set [1] (600 mg/kg ip, vehicle H2O). In addition, the Deaths in the data set on test mice [2] (75 mg/kg ip) is listed as 0/5; with test mice [2] (150 mg/kg ip) it was 0/5; in the data set on test mice [2] (300 mg/kg ip), 2/5; in the data set on test mice [2] (600 mg/kg ip) it was 5/5. Besides, the “Drug Related Lethality” value in the data set on test mice [3] (setting [4]) is 0/10; in the data set with test mice [3] (setting [5]), 0/10; in the data set on test mice [3] (setting [6]), 5/10; in the data set on test mice [3] (setting [7]), 0/10; in the data set on test mice [3] (setting [8]), 0/10; in the data set on test mice [3] (setting [9]), 7/10. The “Survivors (%)” value turned out to be 20% in the data set on test mice [3] (setting [4]); 30% with test mice [3] (setting [5]); 40% with test mice [3] (setting [6]); 0% with test mice [3] (setting [7]); 0% with test mice [3] (setting [8]); 0% in the data set on test mice [3] (setting [9]). In the data set with test mice [3], the “toxicity (in words)” value is “toxic”.
As for `COc1ccc(C2SCCN2CCCN)cc1` (stereo not drawn) [B], the survival was 100% in data set [1] (75 mg/kg ip, vehicle H2O); 20% in data set [1] (150 mg/kg ip, vehicle H2O); 0% in data set [1] (300 mg/kg ip, vehicle H2O); 0% in data set [1] (600 mg/kg ip, vehicle H2O). Moreover, the Deaths in the data set on test mice [2] (75 mg/kg ip) is given as 0/5; with test mice [2] (150 mg/kg ip), 4/5; in the data set with test mice [2] (300 mg/kg ip) it was 5/5; with test mice [2] (600 mg/kg ip), 5/5. Also, the “Drug Related Lethality” value in the data set on test mice [3] (setting [10]), in the data set with test mice [3] (setting [11]) and in the data set on test mice [3] (setting [4]) was 0/10 throughout. Besides, the “Survivors (%)” value amounted to 0% in the data set with test mice [3] (setting [10]), 0% in the data set on test mice [3] (setting [11]) and 20% in the data set with test mice [3] (setting [4]). In addition, the “toxicity (in words)” value in the data set on test mice [3] is “toxic”.
As usually defined, the LD50 is the dose expected to kill half of the subjects tested. Read a low LD50 as greater toxicity. Turning to `COc1ccc(C2SCCN2CCCN)cc1OC` (stereo not drawn) [C], the mortality in data set [1] (37.5 mg/kg ip, vehicle H2O, read-out: Deaths) came out at 50%. Besides, the survival in data set [1] (37.5 mg/kg ip, vehicle H2O) turned out to be 100%; in data set [1] (75 mg/kg ip, vehicle H2O), 0%; in data set [1] (150 mg/kg ip, vehicle H2O), 0%; in data set [1] (300 mg/kg ip, vehicle H2O) it was 0%. Also, in data set [1], the LD50 is 50 mg/kg. In addition, the Deaths with test mice [2] (75 mg/kg ip), in the data set on test mice [2] (150 mg/kg ip) and with test mice [2] (300 mg/kg ip) was 5/5 throughout. The “Drug Related Lethality” value with test mice [3] (setting [12]) is given as 0/5; with test mice [3] (setting [13]), 5/5; in the data set on test mice [3] (setting [14]), 5/5; in the data set on test mice [3] (setting [15]), 5/5. The “Survivors (%)” value with test mice [3] (setting [12]) is listed as 100%; with test mice [3] (setting [13]), 0%; with test mice [3] (setting [14]), 0%; with test mice [3] (setting [15]), 0%. Further, the “protection against LD100 dose of irradiation (in words)” value with test mice [3] is “complete protection”.
For the molecule `NCCCN1CCSC1c1ccc2c(c1)OCO2` (stereo not drawn) [D], the survival in data set [1] (37.5 mg/kg ip, vehicle H2O) was determined as 100%; in data set [1] (75 mg/kg ip, vehicle H2O), 0%; in data set [1] (150 mg/kg ip, vehicle H2O), 0%; in data set [1] (300 mg/kg ip, vehicle H2O), 0%. The molecule also displayed an LD50 in data set [1] of 50 mg/kg. Moreover, the Deaths in the data set on test mice [2] (37.5 mg/kg ip) is given as 0/5; in the data set on test mice [2] (75 mg/kg ip), 5/5; with test mice [2] (150 mg/kg ip), 5/5; in the data set with test mice [2] (300 mg/kg ip) it was 5/5. Moreover, the “Drug Related Lethality” value in the data set with test mice [3] (setting [16]) is reported as 0/5; in the data set with test mice [3] (setting [17]), 5/5; in the data set with test mice [3] (setting [18]), 5/5; with test mice [3] (setting [19]) it was 5/5. The “Survivors (%)” value in the data set with test mice [3] (setting [16]) stood at 100%; with test mice [3] (setting [17]) it was 0%; with test mice [3] (setting [18]), 0%; with test mice [3] (setting [19]) it was 0%. In the data set on test mice [3], the “protection against LD100 dose of irradiation (in words)” value is “complete protection”.
